Source: ChEMBL document CHEMBL6182877, “Design, synthesis, and activity evaluation of novel STING inhibitors based on C170 and H151” (Eur J Med Chem, 2025)
The source made the active and inactive calls. The calls are words filed in the database; no cut-off is given here.

Assays:
RAW264.7 [1] = assay: Cytotoxicity against mouse RAW264.7 cells assessed as cell viability by MTT assay
[2] = Cytotoxicity against HEK293T cells assessed as cell viability by MTT assay; assay type: toxicity, cell-based, HEK-293T; settings: human
THP-1 = assay: Cytotoxicity against human THP-1 cells assessed as cell viability by MTT assay
[3] = Cytotoxicity against HUVEC cells assessed as cell viability by MTT assay; assay type: toxicity, cell-based; settings: human
[4] = biological target: Stimulator of interferon genes protein (Homo sapiens) (UniProt Q86WV6); assay: Inhibition of STING activation in human THP-1 cells assessed as reduction in SR717-induced CXCL10 mRNA expression at 0.03 to 0.3 uM pretreated with compound for 1 hr followed by SR717 induction and measured after 4 hrs by qPCR analysis; assay type: cell-based; settings: dose 0.03-0.3 µM, time 5.0 hrs
Sequence of Stimulator of interferon genes protein (Homo sapiens) (Q86WV6 whole entry): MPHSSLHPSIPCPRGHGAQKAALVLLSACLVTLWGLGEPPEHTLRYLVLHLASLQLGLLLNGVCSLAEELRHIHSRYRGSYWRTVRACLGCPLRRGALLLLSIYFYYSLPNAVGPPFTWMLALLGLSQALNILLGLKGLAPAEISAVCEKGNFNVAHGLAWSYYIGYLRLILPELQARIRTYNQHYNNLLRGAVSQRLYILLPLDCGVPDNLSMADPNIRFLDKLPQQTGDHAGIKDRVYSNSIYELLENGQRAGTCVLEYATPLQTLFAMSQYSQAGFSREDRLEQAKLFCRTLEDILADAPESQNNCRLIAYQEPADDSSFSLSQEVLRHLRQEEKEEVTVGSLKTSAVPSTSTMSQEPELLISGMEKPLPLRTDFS

Mus musculus [5] = assay: Protection against cisplatin-induced C57BL/6J mouse assessed as effect on fibrotic tissue proliferation in spleen at 10 to 20 mg/kg, ip pretreated with compound for 1 hr followed by cisplatin induction and measured after 4 hrs by H and E staining based analysis; assay type: functional, organism-based; settings: dose 10-20 mg/kg, time 5.0 hrs
Mus musculus [6] = assay: Protection against cisplatin-induced C57BL/6J mouse assessed as reduction in vacuole-like changes in kidney at 10 to 20 mg/kg, ip pretreated with compound for 1 hr followed by cisplatin induction and measured after 4 hrs by H and E staining based analysis; assay type: functional, organism-based; settings: dose 10-20 mg/kg, time 5.0 hrs
Mus musculus [7] = assay: Anti-inflammatory activity in cisplatin-induced acute kidney injury C57BL/6J mouse model assessed as reduction in ALT level in plasma at 10 to 20 mg/kg, ip; assay type: functional, organism-based; settings: dose 10-20 mg/kg
Mus musculus [8] = assay: Protection against cisplatin-induced C57BL/6J mouse assessed as effect on enlargement of splenic corpuscle in spleen at 10 to 20 mg/kg, ip pretreated with compound for 1 hr followed by cisplatin induction and measured after 4 hrs by H and E staining based analysis; assay type: functional, organism-based; settings: dose 10-20 mg/kg, time 5.0 hrs
[9] = biological target: T1, Stimulator of interferon genes protein (Mus musculus) (UniProt Q3TBT3); assay: Binding affinity to STING in mouse RAW264.7 cells assessed as increase in thermal stability at 30 uM 47 to 62 degreeC incubated for 8 hrs by CETSA analysis; assay type: cell-based
T1 sequence (whole entry): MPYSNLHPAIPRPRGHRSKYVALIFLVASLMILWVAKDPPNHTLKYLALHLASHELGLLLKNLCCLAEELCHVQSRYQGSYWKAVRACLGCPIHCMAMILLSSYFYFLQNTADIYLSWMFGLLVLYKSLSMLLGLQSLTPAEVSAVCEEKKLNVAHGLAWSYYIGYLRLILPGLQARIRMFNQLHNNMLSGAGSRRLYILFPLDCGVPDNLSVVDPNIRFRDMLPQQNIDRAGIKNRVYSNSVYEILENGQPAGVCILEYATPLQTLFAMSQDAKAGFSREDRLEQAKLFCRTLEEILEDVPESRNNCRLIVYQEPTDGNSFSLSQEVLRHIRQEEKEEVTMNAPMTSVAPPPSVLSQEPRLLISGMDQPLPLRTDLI

Mus musculus [10] = assay: Anti-inflammatory activity in cisplatin-induced acute kidney injury C57BL/6J mouse model assessed as reduction in AST level in plasma at 10 to 20 mg/kg, ip; assay type: functional, organism-based; settings: dose 10-20 mg/kg
Mus musculus [11] = assay: Protection against cisplatin-induced C57BL/6J mouse assessed as reduction in tubular structure disintegration in kidney at 10 to 20 mg/kg, ip pretreated with compound for 1 hr followed by cisplatin induction and measured after 4 hrs by H and E staining based analysis; assay type: functional, organism-based; settings: dose 10-20 mg/kg, time 5.0 hrs
Mus musculus [12] = assay: Renoprotective activity in cisplatin-induced acute kidney injury C57BL/6J mouse model assessed as reduction in […] level at 10 to 20 mg/kg, ip; assay type: functional, organism-based; settings: dose 10-20 mg/kg
Mus musculus [13] = assay: Protection against cisplatin-induced C57BL/6J mouse assessed as reduction in tubular epithelial edema in kidney at 10 to 20 mg/kg, ip pretreated with compound for 1 hr followed by cisplatin induction and measured after 4 hrs by H and E staining based analysis; assay type: functional, organism-based; settings: dose 10-20 mg/kg, time 5.0 hrs
Mus musculus [14] = assay: Protection against cisplatin-induced C57BL/6J mouse assessed as reduction in inflammatory cell exudation in kidney at 10 to 20 mg/kg, ip pretreated with compound for 1 hr followed by cisplatin induction and measured after 4 hrs by H and E staining based analysis; assay type: functional, organism-based; settings: dose 10-20 mg/kg, time 5.0 hrs
Mus musculus [15] = assay: Protection against cisplatin-induced C57BL/6J mouse assessed as effect on inflammatory cell infiltration in spleen at 10 to 20 mg/kg, ip pretreated with compound for 1 hr followed by cisplatin induction and measured after 4 hrs by H and E staining based analysis; assay type: functional, organism-based; settings: dose 10-20 mg/kg, time 5.0 hrs
Mus musculus [16] = assay: Anti-inflammatory activity in cisplatin-induced acute kidney injury C57BL/6J mouse model assessed as reduction in kidney index at 10 to 20 mg/kg, ip; assay type: functional, organism-based; settings: dose 10-20 mg/kg
Mus musculus [17] = assay: Protection against cisplatin-induced C57BL/6J mouse assessed as reduction in tubular obstruction in kidney at 10 to 20 mg/kg, ip pretreated with compound for 1 hr followed by cisplatin induction and measured after 4 hrs by H and E staining based analysis; assay type: functional, organism-based; settings: dose 10-20 mg/kg, time 5.0 hrs
[18] = biological target: Stimulator of interferon genes protein (Homo sapiens) (UniProt Q86WV6); assay: Inhibition of STING activation in human THP-1 cells assessed as reduction in SR717-induced IFNbeta mRNA expression at 0.03 to 0.3 uM pretreated with compound for 1 hr followed by SR717 induction and measured after 4 hrs by qPCR analysis; assay type: cell-based; settings: dose 0.03-0.3 µM, time 5.0 hrs
Mus musculus [19] = assay: Renoprotective activity in cisplatin-induced acute kidney injury C57BL/6J mouse model assessed as reduction in […] level at 10 mg/kg, ip; assay type: functional, organism-based
[20] = biological target: T2, Interferon regulatory factor 3 (Homo sapiens) (UniProt Q14653); assay: Inhibition of IRF3 phosphorylation in SR717-induced human THP-1 cells at 0.2 to 5 uM pretreated with compound for 1 hr followed by SR717 induction and measured after 4 hrs by Western blot analysis; assay type: cell-based; settings: dose 0.2-5 µM, time 5.0 hrs
T2 sequence (whole entry): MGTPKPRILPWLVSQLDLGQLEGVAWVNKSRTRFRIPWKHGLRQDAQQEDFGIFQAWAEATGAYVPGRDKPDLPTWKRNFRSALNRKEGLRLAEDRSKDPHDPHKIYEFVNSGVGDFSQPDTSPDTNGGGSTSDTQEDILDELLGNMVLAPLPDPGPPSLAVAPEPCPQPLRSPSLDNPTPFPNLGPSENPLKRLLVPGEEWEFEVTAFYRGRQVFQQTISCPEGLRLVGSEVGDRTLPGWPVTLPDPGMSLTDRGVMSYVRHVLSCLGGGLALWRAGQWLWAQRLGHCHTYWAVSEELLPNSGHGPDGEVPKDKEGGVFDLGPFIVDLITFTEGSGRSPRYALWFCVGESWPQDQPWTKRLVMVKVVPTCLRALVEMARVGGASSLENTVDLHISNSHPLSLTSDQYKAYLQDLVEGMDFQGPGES

[21] = Toxicity in male C57BL/6J mouse assessed as body weight loss at 10 mg/kg, ip; assay type: organism-based; settings: in vivo
Mus musculus [22] = assay: Anti-inflammatory activity against MSA-2 induced C57BL/6 mouse model assessed as downregulation of TBK1 expression in spleen at 30 mg/kg, ip pretreated with compound for 1 hr followed by MSA-2 induction and measured after 4 hrs; assay type: functional, organism-based; settings: time 5.0 hrs
Mus musculus [23] = assay: Anti-inflammatory activity against MSA-2 induced C57BL/6 mouse model assessed as reduction in IFN-beta level in plasma at 30 mg/kg, ip pretreated with compound for 1 hr followed by MSA-2 induction and measured after 4 hr; assay type: functional, organism-based; settings: time 5.0 hrs
Mus musculus [24] = assay: Anti-inflammatory activity against MSA-2 induced C57BL/6 mouse model assessed as reduction in IL-6 level in plasma at 30 mg/kg, ip pretreated with compound for 1 hr followed by MSA-2 induction and measured after 4 hr; assay type: functional, organism-based; settings: time 5.0 hrs
[25] = biological target: T1, Stimulator of interferon genes protein (Mus musculus); assay: Binding affinity to STING in mouse RAW264.7 cells assessed as increase in thermal stability at 30 uM 40 to 61 degreeC incubated for 8 hrs by CETSA analysis; assay type: cell-based
Mus musculus [26] = assay: Anti-inflammatory activity against MSA-2 induced C57BL/6 mouse model assessed as reduction in splenic index at 30 mg/kg, ip pretreated with compound for 1 hr followed by MSA-2 induction and measured after 4 hrs; assay type: functional, organism-based; settings: time 5.0 hrs
[27] = Toxicity in male C57BL/6J mouse assessed as kidney damage at 10 mg/kg, ip by H and E staining based analysis; assay type: organism-based; settings: in vivo
RAW264.7 [28] = assay: Antiinflammatory activity in mouse RAW264.7 cells assessed as inhibition of LPS-induced NO release at 0.2 to 5 uM pretreated with compound for 1 hr; assay type: functional, cell-based; settings: dose 0.2-5 µM
Mus musculus [29] = assay: Renoprotective activity in cisplatin-induced acute kidney injury C57BL/6J mouse model assessed as reduction in BUN level at 10 mg/kg, ip; assay type: functional, organism-based
[30] = biological target: T3, Serine/threonine-protein kinase TBK1 (Homo sapiens) (UniProt Q9UHD2); assay: Inhibition of TBK1 phosphorylation in SR717-induced human THP-1 cells at 0.2 to 5 uM pretreated with compound for 1 hr followed by SR717 induction and measured after 4 hrs by Western blot analysis; assay type: cell-based; settings: dose 0.2-5 µM, time 5.0 hrs
T3 sequence (whole entry): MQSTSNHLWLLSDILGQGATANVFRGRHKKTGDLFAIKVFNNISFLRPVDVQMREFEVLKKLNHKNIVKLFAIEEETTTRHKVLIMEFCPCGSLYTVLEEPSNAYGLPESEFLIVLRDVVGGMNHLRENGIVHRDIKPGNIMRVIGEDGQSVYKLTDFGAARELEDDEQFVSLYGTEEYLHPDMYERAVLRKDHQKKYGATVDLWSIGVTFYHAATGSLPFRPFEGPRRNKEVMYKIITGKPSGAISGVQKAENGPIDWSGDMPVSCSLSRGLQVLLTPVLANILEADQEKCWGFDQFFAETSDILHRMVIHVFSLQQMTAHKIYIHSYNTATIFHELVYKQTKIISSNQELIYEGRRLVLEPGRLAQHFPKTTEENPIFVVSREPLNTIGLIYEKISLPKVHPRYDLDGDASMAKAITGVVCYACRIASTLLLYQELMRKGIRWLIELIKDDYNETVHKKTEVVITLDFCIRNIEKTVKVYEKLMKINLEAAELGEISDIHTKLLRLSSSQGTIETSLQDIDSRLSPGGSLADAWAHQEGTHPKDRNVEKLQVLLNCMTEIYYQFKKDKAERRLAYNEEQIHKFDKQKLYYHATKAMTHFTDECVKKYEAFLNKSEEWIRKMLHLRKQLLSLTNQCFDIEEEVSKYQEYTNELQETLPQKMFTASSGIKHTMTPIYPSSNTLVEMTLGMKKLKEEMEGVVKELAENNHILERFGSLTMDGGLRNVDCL

SMILES	IC50 (RAW264.7 [1]) [µM]	IC50 [2] [µM]	IC50 (THP-1) [µM]	IC50 [3] [µM]	Activity (Mus musculus [19])	Activity [21]	Activity (Mus musculus [22])	Activity (Mus musculus [23])	Activity (Mus musculus [24])	Activity (Mus musculus [26])	Activity [27]	Activity (Mus musculus [29])	also measured
C/C=C/C=C/C(=O)OCc1ccc(NC(=O)c2ccc([N+](=O)[O-])o2)cc1	0.49	8.57	–	–	–	–	–	–	–	–	–	–	–
O=C(/C=C/C=C/c1ccccc1)OCCc1ccc(NC(=O)c2ccc([N+](=O)[O-])o2)cc1	2.62	6.34	4.6	7.89	–	–	–	–	–	–	–	–	–
O=C(Nc1ccc(OCCCC(F)(F)F)cc1)Nc1c[nH]c2ccccc12	–	–	–	–	–	–	–	–	–	–	–	–	inhibition [4]: Active; Activity (Mus musculus [5]): Active; Activity (Mus musculus [6]): Active; Activity (Mus musculus [7]): Active; Activity (Mus musculus [8]): Active; Activity [9]: Active; Activity (Mus musculus [10]): Active; Activity (Mus musculus [11]): Active; Activity (Mus musculus [12]): Active; Activity (Mus musculus [13]): Active; Activity (Mus musculus [14]): Active; Activity (Mus musculus [15]): Active; Activity (Mus musculus [16]): Active; Activity (Mus musculus [17]): Active; inhibition [18]: Active
O=C(Nc1ccc(OCCCC(F)(F)F)cc1)c1ccc([N+](=O)[O-])o1	5.21	11.3	16.8	10.4	Active	Non-toxic	Active	Active	Active	Active	Non-toxic	Active	inhibition [20]: Active; Activity [25]: Active; Activity (RAW264.7 [28]): inactive; inhibition [30]: Active
CCCCc1ccc(NC(=O)c2ccc([N+](=O)[O-])o2)cc1	0.89	2.81	8.07	4.77	Active	Non-toxic	Active	Active	Active	Active	Non-toxic	Active	–
O=C(/C=C/C=C/c1ccccc1)OCc1ccc(NC(=O)c2ccc([N+](=O)[O-])o2)cc1	0.53	7.43	–	–	–	–	–	–	–	–	–	–	–
